Laboratory results as given in US20250170126A1 (MITSUBISHI TANABE PHARMA CORPORATION, priority 2022, published 2025).

What follows are compounds tested against Human B0AT1 (Homo sapiens (Human), UniProt Q695T7) (assay: hB0AT1 inhibitory test (phenylalanine uptake)). Details: Human B0AT1 stable expression CHO cells; [3H]-L-phenylalanine uptake, phenylalanine 0.25 mM.
Type: cell-based
Experimental: A test compound dissolved in dimethyl sulfoxide (DMSO) was added to a 96 well plate for solid phase radioactivity measurement containing a scintillator at the bottom of the well (final concentration of DMSO 0.5%). DMSO alone as a control and DMSO containing N-(4-bromophenyl)-3,5-dichloro-2-hydroxybenzamide (final concentration […]) for the is measurement of B0AT1 non-specific uptake were similarly added at 0.5 μL per well. Human B0AT1 stable expression CHO cells suspended in a buffer (buffer containing 96 mM sodium chloride, 2 mM potassium chloride, 1.8 mM calcium chloride, 1 mM magnesium chloride, 0.01% bovine serum albumin, and 10 mM 2-[4-(2-hydroxyethyl)-1-piperazinyl]ethanesulfonic acid) were added by 90 μL to 75000 cells/well. After standing at ordinary temperature for 30 min or longer, the cells were subjected to a phenylalanine uptake experiment. A buffer containing L-phenylalanine and [3,4,5-3H]-L-phenylalanine was added by 10 μL per well (final concentration of phenylalanine 0.25 mM), and the radioactivity of the plate bottom surface at ordinary temperature was measured with a scintillation counter over time, and the radioactivity value after 100 to 200 min was analyzed. A value obtained by subtracting the B0AT1 non-specific uptake from the control uptake was taken as 100%, and the concentration necessary for each test compound to achieve 50% inhibition (IC50 value) was determined by nonlinear regression using a logistic model.

Chain of Human B0AT1 (Q695T7 whole entry): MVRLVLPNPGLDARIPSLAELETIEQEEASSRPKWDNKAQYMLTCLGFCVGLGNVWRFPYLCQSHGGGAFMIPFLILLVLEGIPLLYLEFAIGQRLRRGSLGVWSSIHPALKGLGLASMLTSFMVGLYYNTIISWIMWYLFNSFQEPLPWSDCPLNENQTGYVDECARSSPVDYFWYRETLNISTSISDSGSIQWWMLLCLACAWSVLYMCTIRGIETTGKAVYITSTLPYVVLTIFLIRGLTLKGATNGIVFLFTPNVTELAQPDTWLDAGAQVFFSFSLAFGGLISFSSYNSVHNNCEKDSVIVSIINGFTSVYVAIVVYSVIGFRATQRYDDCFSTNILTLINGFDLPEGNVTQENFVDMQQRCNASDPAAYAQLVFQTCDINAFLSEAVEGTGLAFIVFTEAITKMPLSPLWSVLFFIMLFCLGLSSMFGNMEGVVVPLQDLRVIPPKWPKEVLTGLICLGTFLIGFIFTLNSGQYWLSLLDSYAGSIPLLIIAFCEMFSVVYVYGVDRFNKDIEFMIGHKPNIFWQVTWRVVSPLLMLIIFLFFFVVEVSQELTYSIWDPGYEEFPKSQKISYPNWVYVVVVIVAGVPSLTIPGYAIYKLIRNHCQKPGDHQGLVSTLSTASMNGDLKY

| SMILES | IC50 |
| --- | --- |
| N#Cc1ccc2c(c1)CN(C(=O)CNC(=O)/C=C/c1ccc(C(F)(F)F)cc1)CC2 [I-197] | 25 nM |
| O=C(/C=C/c1ccc(C(F)(F)F)cc1)NCC(=O)N1CCn2nc(C(=O)O)c(C3CC3)c2C1 [I-268] | 79 nM |
| O=C(/C=C/c1ccc(C(F)(F)F)cc1)NCC(=O)N1CCCn2ncnc2C1 [I-72] | 317 nM |
| O=C(/C=C/c1ccc(C(F)(F)F)cc1)NCC(=O)N1Cc2cncnc2C1 [I-68] | 58 nM |
| CNS(=O)(=O)c1ccc2c(c1)CCN(C(=O)CNC(=O)/C=C/c1ccc(C(F)(F)F)cc1)C2 [I-221] | 44 nM |
| O=C(/C=C/c1ccc(C(F)(F)F)cc1)NCC(=O)N1CCn2nc(C(=O)O)cc2C1 [I-273] | 125 nM |
| O=C(/C=C/c1ccc(C(F)(F)F)cc1)NCC(=O)N1CC[C@H](Cn2cccn2)C1 [I-213] | 108 nM |
| O=C(/C=C/c1ccc(C(F)(F)F)cc1)NCC(=O)N1CCn2nc(C(F)(F)F)nc2C1 [I-172] | 44 nM |
| O=C(/C=C/c1ccc(C(F)(F)F)cc1)NCC(=O)N1CCn2cc(C(F)(F)F)nc2C1 [I-37] | 91 nM |
| O=C(/C=C/c1ccc(C(F)(F)F)cc1)NCC(=O)N1CCc2nccn2CC1 [I-64] | 195 nM |
| Cn1nc2n(c1=O)CCN(C(=O)CNC(=O)/C=C/c1ccc(C(F)(F)F)cc1)C2 [I-79] | 51 nM |
| O=C(/C=C/c1ccc(C(F)(F)F)cc1)NCC(=O)N1CCc2nc(C(=O)O)ccc2C1 [I-263] | 200 nM |
| NS(=O)(=O)c1ccc2c(c1)CN(C(=O)CNC(=O)/C=C/c1ccc(C(F)(F)F)cc1)CC2 [I-189] | 35 nM |
| O=C(/C=C/c1ccc(C(F)(F)F)cc1)NCC(=O)N1CCc2cccc(Br)c2C1 [I-196] | 17 nM |
| CCOCCN(CCOCC)C(=O)CNC(=O)/C=C/c1ccc(C(F)(F)F)cc1 [I-10] | 803 nM |
| O=C(/C=C/c1ccc(C(F)(F)F)cc1)NCC(=O)N1Cc2nc[nH]c2C1 [I-63] | 164 nM |
| O=C(/C=C/c1ccc(C(F)(F)F)cc1)NCC(=O)N1C[C@H](O)C[C@@H]1c1ccccc1 [I-141, (E)-N-[2-[(2R,4R)-4-hydroxy-2-phenylpyrrolidin-1-yl]-2-oxoethyl]-3-[4-(trifluoromethyl)phenyl]prop-2-enamide] | 1720 nM |
| COCCN(Cc1ccccn1)C(=O)CNC(=O)/C=C/c1ccc(C(F)(F)F)cc1 [I-50] | 81 nM |
| O=C(/C=C/c1ccc(C(F)(F)F)cc1)NCC(=O)N1CCc2nncn2CC1 [I-20] | 270 nM |
| O=C(/C=C/c1ccc(C(F)(F)F)cc1)NCC(=O)N1CCn2ncc(C(=O)N3CCC(F)(F)C3)c2C1 [I-280] | 49 nM |
| CN1CCN(C(=O)CNC(=O)/C=C/c2ccc(C(F)(F)F)cc2)CC1=O [I-17] | 195 nM |
| NC(=O)c1cnn2c1CN(C(=O)CNC(=O)/C=C/c1ccc(C(F)(F)F)cc1)CC2 [I-224] | 44 nM |

| SMILES | IC50 |
| --- | --- |
| COCCN(CCS(C)(=O)=O)C(=O)CNC(=O)/C=C/c1ccc(C(F)(F)F)cc1 [I-51] | 386 nM |
| CC1CN(C(=O)CNC(=O)/C=C/c2ccc(C(F)(F)F)cc2)CCN1C (centres unmarked) [I-6] | 24 nM |
| O=C(/C=C/c1ccc(C(F)(F)F)cc1)NCC(=O)N1CCn2nc(CO)cc2C1 [I-173, (E)-N-[2-[2-(hydroxymethyl)-6,7-dihydro-4H-pyrazolo[1,5-a]pyrazin-5-yl]-2-oxo-ethyl]-3-[4-(trifluoromethyl)phenyl]prop-2-enamide] | 30 nM |
| O=C(/C=C/c1ccc(C(F)(F)F)cc1)NCC(=O)N1CCc2cc(C(=O)O)ccc2C1 [I-277] | 143 nM |
| O=C(/C=C/c1ccc(C(F)(F)F)cc1)NCC(=O)N(CCO)Cc1ccccn1 [I-85] | 186 nM |
| O=C(/C=C/c1ccc(C(F)(F)F)cc1)NCC(=O)N1Cc2nccnc2C1 [I-178] | 60 nM |
| CN1CCN(C(=O)CNC(=O)/C=C/c2ccc(C(F)(F)F)cc2)[C@H](C(=O)O)C1 [I-123, (2S)-4-methyl-1-[2-[[(E)-3-[4-(trifluoromethyl)phenyl]prop-2-enoyl]amino]acetyl]piperazine-2-carboxylic acid] | 175 nM |
| O=C(/C=C/c1ccc(C(F)(F)F)cc1)NCC(=O)N1CCCn2nccc21 [I-86] | 23 nM |
| CC(C)N1CCN(C(=O)CNC(=O)/C=C/c2ccc(C(F)(F)F)cc2)CC1 [I-24] | 58 nM |
| O=C(/C=C/c1ccc(C(F)(F)F)cc1)NCC(=O)N1CCn2ncc(Br)c2C1 [I-96] | 10 nM |
| O=C(/C=C/c1ccc(C(F)(F)F)cc1)NCC(=O)N1CCn2ncnc2C12CC2 [I-207] | 324 nM |
| Cc1nnc(CN(CC2(F)CC2)C(=O)CNC(=O)/C=C/c2ccc(C(F)(F)F)cc2)o1 [I-209] | 32 nM |
| O=C(/C=C/c1ccc(C(F)(F)F)cc1)NCC(=O)N1CCc2ccc(Br)cc2C1 [I-195] | 54 nM |
| Cn1cnc2c1CN(C(=O)CNC(=O)/C=C/c1ccc(C(F)(F)F)cc1)CC2 [I-40] | 29 nM |
| Cc1nc2n(n1)CCN(C(=O)CNC(=O)/C=C/c1ccc(C(F)(F)F)cc1)C2 [I-174] | 48 nM |
| O=C(/C=C/c1ccc(C(F)(F)F)cc1)NCC(=O)N1Cc2ccnn2C[C@@H]1C(=O)O [I-283, (6R)-5-[2-[[(E)-3-[4-(trifluoromethyl)phenyl]prop-2-enoyl]amino]acetyl]-6,7-dihydro-4H-pyrazolo[1,5-a]pyrazine-6-carboxylic acid] | 361 nM |
| CN1CCN(C(=O)CNC(=O)/C=C/c2ccc(-c3ccc(F)cc3)cc2)CC1 [I-126, (E)-3-[4-(4-fluorophenyl)phenyl]-N-[2-(4-methylpiperazin-1-yl)-2-oxoethyl]prop-2-enamide] | 38 nM |
| O=C(/C=C/c1ccc(C(F)(F)F)cc1)NCC(=O)N1CCc2cccc(C(F)(F)F)c2C1 [I-191] | 31 nM |
| CN(C)C(=O)c1cnn2c1CN(C(=O)CNC(=O)/C=C/c1ccc(C(F)(F)F)cc1)CC2 [I-226] | 67 nM |
| COCCN(Cc1cnccn1)C(=O)CNC(=O)/C=C/c1ccc(C(F)(F)F)cc1 [I-175] | 71 nM |
| O=C(/C=C/c1ccc(C(F)(F)F)cc1)NCC(=O)N1CCn2nc(C(=O)O)c(-c3ccc(F)cc3)c2C1 [I-267] | 83 nM |
| O=C(/C=C/c1ccc(C(F)(F)F)cc1)NCC(=O)N1CCCNC(=O)C1 [I-16] | 1750 nM |

| SMILES | IC50 |
| --- | --- |
| CS(=O)(=O)[C@@H]1CCN(C(=O)CNC(=O)/C=C/c2ccc(C(F)(F)F)cc2)C1 [I-47] | 550 nM |
| CC1Cn2ncnc2CN1C(=O)CNC(=O)/C=C/c1ccc(C(F)(F)F)cc1 (centres unmarked) [I-97] | 397 nM |
| O=C(/C=C/c1ccc(C(F)(F)F)cc1)NCC(=O)N1CCn2cc(C(=O)O)nc2C1 [I-140, 7-[2-[[(E)-3-[4-(trifluoromethyl)phenyl]prop-2-enoyl]amino]acetyl]-6,8-dihydro-5H-imidazo[1,2-a]pyrazine-2-carboxylic acid] | 328 nM |
| O=C(/C=C/c1ccc(C(F)(F)F)cc1)NCC(=O)N1CCN(CCO)CC1 [I-25] | 81 nM |
| CNC(=O)[C@H]1C[C@H](n2cccn2)CN1C(=O)CNC(=O)/C=C/c1ccc(C(F)(F)F)cc1 [I-215] | 473 nM |
| O=C(/C=C/c1ccc(C(F)(F)F)cc1)NCC(=O)N1CCN2C(=O)CCC2C1 (centres unmarked) [I-43] | 80 nM |
| NC(=O)c1ccc2c(c1)CCN(C(=O)CNC(=O)/C=C/c1ccc(C(F)(F)F)cc1)C2 [I-281] | 21 nM |
| O=C(/C=C/c1ccc(C(F)(F)F)cc1)NCC(=O)N1CCn2c(nnc2C(F)(F)F)C1 [I-22] | 214 nM |
| O=C(/C=C/c1ccc(S(F)(F)(F)(F)F)cc1)NCC(=O)N1CCc2cc(C(=O)O)ccc2C1 [I-276, 2-[2-[[(E)-3-[4-(pentafluoro-A6-sulfanyl)phenyl]prop-2-enoyl]amino]acetyl]-3,4-dihydro-1H-isoquinoline-6-carboxylic acid] | 87 nM |
| Cc1nc(-c2ccc(/C=C/C(=O)NCC(=O)N3CCN(C)CC3)cc2)no1 [I-107] | 1160 nM |
| CS(=O)(=O)Nc1ccc2c(c1)CCN(C(=O)CNC(=O)/C=C/c1ccc(C(F)(F)F)cc1)C2 [I-188] | 34 nM |
| O=C(/C=C/c1ccc(C(F)(F)F)cc1)NCC(=O)N1CCc2nnccc2C1 [I-99] | 64 nM |
| O=C(/C=C/c1ccc(C(F)(F)F)cc1)NCC(=O)N1CCc2ccc(C(=O)O)cc2C1 [I-270] | 168 nM |
| O=C(/C=C/c1ccc(C(F)(F)F)cc1)NCC(=O)N1CCc2c(ccc(C(=O)O)c2F)C1 [I-261, 5-fluoro-2-[2-[[(E)-3-[4-(trifluoromethyl)phenyl]prop-2-enoyl]amino]acetyl]-3,4-dihydro-1H-isoquinoline-6-carboxylic acid] | 223 nM |
| COCCN(Cc1ncc(C)s1)C(=O)CNC(=O)/C=C/c1ccc(C(F)(F)F)cc1 [I-56] | 67 nM |
| O=C(/C=C/c1ccc(C(F)(F)F)cc1)NCC(=O)N1CC[C@H](O)C1 [I-18] | 1660 nM |
| O=C(/C=C/c1ccc(C(F)(F)F)cc1)NCC(=O)N1CCN2CCOCC2C1 (centres unmarked) [I-41] | 833 nM |
| O=C(/C=C/c1ccc(C(F)(F)F)cc1)NCC(=O)N1CCCc2ccccc21 [I-87] | 124 nM |
| CC(C)(O)c1cc2n(n1)CCN(C(=O)CNC(=O)/C=C/c1ccc(C(F)(F)F)cc1)C2 [I-129, (E)-N-[2-[2-(1-hydroxy-1-methylethyl)-6,7-dihydro-4H-pyrazolo [1,5-a]pyrazin-5-yl]-2-oxoethyl]-3-[4-(trifluoromethyl)phenyl]prop-2-enamide] | 66 nM |
| O=C(/C=C/c1ccc(C(F)(F)F)cc1)NCC(=O)N1CCc2c(cccc2C(F)(F)F)C1 [I-194] | 140 nM |
| CCc1nnc(CN(CC2(F)CC2)C(=O)CNC(=O)/C=C/c2ccc(C(F)(F)F)cc2)o1 [I-211] | 61 nM |
